The text below walks through data of US8846719B2, “Isoxazolo-pyridine derivatives” (Roche Palo Alto LLC, priority 2007, dated 2014).

This test addresses human GABA A receptor α5β3γ2 (Homo sapiens (Human), UniProt P18507+P31644). Kind of test: [3H]flumazenil competition binding assay, human GABA A α5β3γ2 receptors expressed in HEK293 cells. Conditions: human receptor; displacement of [3H]flumazenil (0.5 nM); means of two determinations; read-out: hKi GABAAa5. The gist of the method: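 Ki values, each the mean of two runs, derive from displacement of [3H]flumazenil from human α5β3γ2 GABA A receptors transiently expressed in HEK293 membranes. Binding ran 1 h at 4° C in Krebs-tris, pH 7.5, before filter harvest and scintillation counting.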
A general note: Loss of bound radioactivity is the signal in a displacement assay; it reports binding, not function.

Take `O=C(NCC(F)(F)F)c1ccc(OCc2conc2-c2ccccn2)nc1` [Example 362, 6-(3-Pyridin-2-yl-isoxazol-4-ylmethoxy)-N-(2,2,2-trifluoro-ethyl)-nicotinamide]: the Ki came to 8 nM. The figure for `Cc1onc(-c2cccnc2)c1COc1ccc(C(=O)NC2CC2)cn1` [Example 157, N-Cyclopropyl-6-(5-methyl-3-pyridin-3-yl-isoxazol-4-ylmethoxy)-nicotinamide] is 26.3 nM. With `Cc1noc(-c2ccc(OCc3c(-c4ccccc4)noc3C)nc2)n1` [Example 245, 5-(3-Methyl-[1,2,4]oxadiazol-5-yl)-2-(5-methyl-3-phenyl-isoxazol-4-ylmethoxy)-pyridine] the figure was 3.3 nM; with `Cc1onc(-c2ccccc2)c1COc1ccc(C(=O)N[C@H](C)CO)cn1` [Example 195, N—((R)-2-Hydroxy-1-methyl-ethyl)-6-(5-methyl-3-phenyl-isoxazol-4-ylmethoxy)-nicotinamide], 1.7 nM; with `Cc1onc(-c2ccc(Cl)cc2)c1COc1ccc(C(=O)N2CCSCC2)cn1` [Example 124, {6-[3-(4-Chloro-phenyl)-5-methyl-isoxazol-4-ylmethoxy]-pyridin-3-yl}-thiomorpholin-4-yl-methanone], 7.5 nM. The figure for `Cc1ccc(-c2noc(C)c2COc2ccc(C(=O)NC(C)C)cn2)c(F)c1` [Example 253, 6-[3-(2-Fluoro-4-methyl-phenyl)-5-methyl-isoxazol-4-ylmethoxy]-N-isopropyl-nicotinamide] is 0.8 nM. For `CCNC(=O)c1ccc(OCc2c(-c3ccc(F)cn3)noc2C)nc1` [Example 297, Ethyl-6-[3-(5-fluoro-pyridin-2-yl)-5-methyl-isoxazol-4-ylmethoxy]-nicotinamide], the Ki stood at 0.5 nM.

Take `CC(C)NC(=O)c1ccc(OCc2conc2-c2ccccn2)nc1` [Example 359, N-Isopropyl-6-(3-pyridin-2-yl-isoxazol-4-ylmethoxy)-nicotinamide]: the Ki amounted to 13.1 nM. The figure for `Cc1onc(-c2ccccc2)c1COc1ccc(C(=O)NCCF)cn1` [Example 10, N-(2-Fluoro-ethyl)-6-(5-methyl-3-phenyl-isoxazol-4-ylmethoxy)-nicotinamide] is 4.4 nM. With `Cc1onc(-c2ccc(Cl)cn2)c1COc1ccc(C(=O)NCC(F)(F)F)cn1` [Example 308, 6-[3-(5-Chloro-pyridin-2-yl)-5-methyl-isoxazol-4-ylmethoxy]-(2,2,2-trifluoro-ethyl)-nicotinamide] the figure was 0.2 nM; with `Cc1onc(-c2ccc(F)c(F)c2)c1COc1ccc(C(=O)NC(C)(C)CO)cn1` [Example 267, 6-[3-(3,4-Difluoro-phenyl)-5-methyl-isoxazol-4-ylmethoxy]-N-(2-hydroxy-1,1-dimethyl-ethyl)-nicotinamide], 9.3 nM.

Take `Cc1onc(-c2ccc(Cl)cn2)c1COc1ccc(C(=O)NC(C)C)cn1` [Example 302, 6-[3-(5-Chloro-pyridin-2-yl)-5-methyl-isoxazol-4-ylmethoxy]-isopropyl-nicotinamide]: the Ki amounted to 0.3 nM. With `O=C(NCCO)c1ccc(OCc2conc2-c2ccc(Cl)cc2)nc1` [Example 346, 6-[3-(4-Chloro-phenyl)-isoxazol-4-ylmethoxy]-N-(2-hydroxy-ethyl)-nicotinamide] the figure was 10.9 nM. With `Cc1onc(-c2ccc(F)cn2)c1COc1ccc(C(=O)NCCO)cn1` [Example 295, 6-[3-(5-Fluoro-pyridin-2-yl)-5-methyl-isoxazol-4-ylmethoxy]-(2-hydroxy-ethyl)-nicotinamide] the figure was 0.4 nM. With `Cc1onc(-c2ccc(F)cc2)c1COc1ccc(C(=O)NC(C)C)cn1` [Example 107, 6-[3-(4-Fluoro-phenyl)-5-methyl-isoxazol-4-ylmethoxy]-N-isopropyl-nicotinamide] the figure was 0.7 nM.

For `COCCNC(=O)c1ccc(OCc2c(-c3ccccc3)noc2C)nc1` [Example 184, N-(2-Methoxy-ethyl)-6-(5-methyl-3-phenyl-isoxazol-4-ylmethoxy)-nicotinamide], the Ki is 7.8 nM. With `O=C(NC(CO)CO)c1ccc(OCc2conc2-c2ccc(F)cc2)nc1` [Example 334, 6-[3-(4-Fluoro-phenyl)-isoxazol-4-ylmethoxy]-N-(2-hydroxy-1-hydroxymethyl-ethyl)-nicotinamide] the figure was 21.2 nM. Turning to `COC(=O)c1ccc(OCc2c(-c3ccccn3)noc2C)nc1` [Example 271, 6-(5-Methyl-3-pyridin-2-yl-isoxazol-4-ylmethoxy)-nicotinic acid methyl ester], the Ki is 3.8 nM. With `O=C(NC1CC1)c1ccc(OCc2conc2-c2ccccn2)nc1` [Example 360, N-Cyclopropyl-6-(3-pyridin-2-yl-isoxazol-4-ylmethoxy)-nicotinamide] the figure was 18.9 nM; with `Cc1onc(-c2ccccn2)c1COc1ccc(C(=O)NC2CCOCC2)cn1` [Example 272, 6-(5-Methyl-3-pyridin-2-yl-isoxazol-4-ylmethoxy)-N-(tetrahydro-pyran-4-yl)-nicotinamide], 1.1 nM. The figure for `CC[C@@H](CO)NC(=O)c1ccc(OCc2c(-c3ccccc3)noc2C)nc1` [Example 208, N—((S)-1-Hydroxymethyl-propyl)-6-(5-methyl-3-phenyl-isoxazol-4-ylmethoxy)-nicotinamide] is 0.7 nM; for `Cc1onc(-c2ccccc2)c1COc1ccc(C(=O)NC2CCCN(CC(=O)O)C2)cn1` (stereo not shown) [Example 41, (3-{[6-(5-Methyl-3-phenyl-isoxazol-4-ylmethoxy)-pyridine-3-carbonyl]-amino}-piperidin-1-yl)-acetic acid] it is 9.3 nM; for `COC(=O)[C@H](Cc1ccccc1)NC(=O)c1ccc(OCc2c(-c3ccccc3)noc2C)nc1` [Example 229, (S)-2-{[6-(5-Methyl-3-phenyl-isoxazol-4-ylmethoxy)-pyridine-3-carbonyl]-amino}-3-phenyl-propionic acid methyl ester] it is 47.7 nM. Regarding `Cc1onc(-c2ccccc2F)c1COc1ccc(C(=O)NCC(F)(F)C(F)(F)F)cn1` [Example 85, 6-[3-(2-Fluoro-phenyl)-5-methyl-isoxazol-4-ylmethoxy]-N-(2,2,3,3,3-pentafluoro-propyl)-nicotinamide], the Ki worked out at 9.8 nM. With `CC(CO)NC(=O)c1ccc(OCc2conc2-c2ccc(F)cc2)nc1` (stereo not shown) [Example 325, 6-[3-(4-Fluoro-phenyl)-isoxazol-4-ylmethoxy]-N-(2-hydroxy-1-methyl-ethyl)-nicotinamide] the figure was 9 nM; with `CCOC(=O)c1ccc(OCc2c(-c3ccccc3)noc2C)nc1C` [Example 72, 2-Methyl-6-(5-methyl-3-phenyl-isoxazol-4-ylmethoxy)-nicotinic acid ethyl ester], 19.3 nM. The figure for `Cc1onc(-c2ccc(F)cc2)c1COc1ccc(C(=O)NCC2CC2)cn1` [Example 106, N-Cyclopropylmethyl-6-[3-(4-fluoro-phenyl)-5-methyl-isoxazol-4-ylmethoxy]-nicotinamide] is 1.5 nM.

Turning to `Cc1onc(-c2ccccc2)c1COc1ccc(C(=O)N2CCSCC2)cn1` [Example 54, [6-(5-Methyl-3-phenyl-isoxazol-4-ylmethoxy)-pyridin-3-yl]-thiomorpholin-4-yl-methanone], the Ki amounted to 25.6 nM.
